Experimental data from patent US20140093513A1, “METHODS OF LOWERING PROPROTEIN CONVERSATE SUBTILISIN/KEXIN TYPE 9 (PCSK9)” (Catabasis Pharmaceuticals, Inc., priority 2012, published 2014).

Each compound was assayed on PCSK9 (assay: PCSK9 secretion assay in HepG2 cells (PCSK9 ELISA)). Conditions: HepG2 cells, 10 μM atorvastatin, FIG. 2.
Type: cell-based
Experimental: HepG2 cells (from ATCC, Catalog no. HB-8065) were maintained in DMEM (Invitrogen) supplemented with 10% fetal bovine serum (Invitrogen). The day prior to the PCSK9 assay, cells are seeded in 96-well collagen coated plates at 25,000 cells/well.
The compounds of the invention were stored at −20° C. until used. The test article compound was dissolved in 100% ethanol to a 50 mM stock solution. This was then diluted in FBS to a final concentration of 1 mM. This solution was placed in a sonicating water bath for 30 minutes. Subsequent dilutions were then made in FBS supplemented with an equivalent volume of ethanol and mixed by vortexing.
HepG2 cells were seeded onto a collagen coated 96-well plate (Becton Dickinson, Catalog no. 35-4407) the day prior to the assay, as described above. The next day, the cell medium was removed, washed once with 100 μL serum free DMEM to remove any residual PCSK9, and replaced with 90 μL of serum free DMEM. Ten microliters of each compound concentration prepared in FBS was then added. Each concentration of compound was tested in triplicate. The compound was incubated with the cells overnight for 16 hours. Following this incubation, 10 μL of AlamarBlue was added to each well and cells incubated for another 2 hours. The plates were then removed and AlamarBlue fluorescence was measured (excitation, 550 nm and […]) to assess cell viability. Cell culture supernatant was then diluted […] 1×RDSP Calibrator Diluent and PCSK9 ELISA was then performed with 50 μL of this diluted sample, as per the manufacturer's instructions. The ELISA was measured on a Victor X5 multilabel plate reader (PerkinElmer) at an absorbance of 450 nm with background correction measured at 550 nm (The PCSK9 Elisa kits can be purchased from R&D System, Catalog no. DPC900).
Alternatively, an IC50 could also be obtained when this type of assay was carried out using at least 6 different concentrations of the test compounds. Table 1 lists the IC50 values for the compounds tested in this assay.

Compound	PCSK9 secretion
CC(C)c1c(C(=O)Nc2ccccc2)c(-c2ccccc2)c(-c2ccc(F)cc2)n1CC[C@@H](O)C[C@@H](O)CC(=O)O [atorvastatin, reference compound]	increases PCSK9 secretion

Same assay, conditions: HepG2 cells, 16 hours incubation, at least 6 concentrations

Compound	IC50 [µM]
CC/C=C\C/C=C\C/C=C\C/C=C\C/C=C\CCCC(=O)N1CC[C@H](N(C)C(=O)c2cccnc2)C1 [Compound I-61, N—((S)-1-((5Z,8Z,11Z,14Z,17Z)-icosa-5,8,11,14,17-pentaenoyl)pyrrolidin-3-yl)-N-methylnicotinamide]	> 50
CC/C=C\C/C=C\C/C=C\C/C=C\C/C=C\CCCC(=O)N1CCN(C(=O)c2cccnc2)CC1 [Compound I-13, (5Z,8Z,11Z,14Z,17Z)-1-(4-nicotinoylpiperazin-1-yl)icosa-5,8,11,14,17-pentaen-1-one]	25 to 50
CC/C=C\C/C=C\C/C=C\C/C=C\C/C=C\CCCC(=O)NCCOCCOCCOC [III-2, (5Z,8Z,11Z,14Z,17Z)—N-(2-(2-(2-methoxyethoxy)ethoxy)ethyl)icosa-5,8,11,14,17-pentaenamide]	> 50
CC/C=C\C/C=C\C/C=C\C/C=C\C/C=C\CCCC(=O)NCCCCNC(=O)c1cccnc1 [Compound I-19, N-(4-((5Z,8Z,11Z,14Z,17Z)-icosa-5,8,11,14,17-pentaenamido)butyl)nicotinamide]	< 25
CC/C=C\C/C=C\C/C=C\C/C=C\C/C=C\CCCC(=O)NCC(C)(C)NC(=O)c1cccnc1 [Compound I-21, N-(1-((5Z,8Z,11Z,14Z,17Z)-icosa-5,8,11,14,17-pentaenamido)-2-methylpropan-2-yl)nicotinamide]	< 25
CC/C=C\C/C=C\C/C=C\C/C=C\C/C=C\CCCC(=O)N[C@H]1CC[C@H](NC(=O)c2cccnc2)CC1 [Compound I-42, N-((1R,4R)-4-((5Z,8Z,11Z,14Z,17Z)-icosa-5,8,11,14,17-pentaenamido)cyclohexyl)nicotinamide]	> 50
CC/C=C\C/C=C\C/C=C\C/C=C\C/C=C\CCCC(=O)N(C)[C@H]1CCN(C(=O)c2cccnc2)C1 [Compound I-49, (5Z,8Z,11Z,14Z,17Z)—N-methyl-N—((S)-1-nicotinoylpyrrolidin-3-yl)icosa-5,8,11,14,17-pentaenamide]	25 to 50
CC/C=C\C/C=C\C/C=C\C/C=C\C/C=C\CCCC(=O)NCCNC(=O)c1ccc(CCN2CCOCC2)nc1 [Compound V-2, N-(2-((5Z,8Z,11Z,14Z,17Z)-icosa-5,8,11,14,17-pentaenamido)ethyl)-6-(2-morpholinoethyl)nicotinamide]	25 to 50
CC/C=C\C/C=C\C/C=C\C/C=C\C/C=C\CCCC(=O)NCC1CCN(C(=O)c2cccnc2)CC1 [Compound I-29, (5Z,8Z,11Z,14Z,17Z)—N-((1-nicotinoylpiperidin-4-yl)methyl)icosa-5,8,11,14,17-pentaenamide]	< 25
CC/C=C\C/C=C\C/C=C\C/C=C\C/C=C\CCCC(=O)NCCNC(=O)[C@@H]1CCCN1C(=O)c1cccnc1 [Compound I-27, (S)—N-(2-((5Z,8Z,11Z,14Z,17Z)-icosa-5,8,11,14,17-pentaenamido)ethyl)-1-nicotinoylpyrrolidine-2-carboxamide]	< 25
CC/C=C\C/C=C\C/C=C\C/C=C\C/C=C\CCCC(=O)N1CCN(C(=O)c2ccccc2NC(=O)c2cccnc2)CC1 [Compound I-60, N-(2-(4-((5Z,8Z,11Z,14Z,17Z)-icosa-5,8,11,14,17-pentaenoyl)piperazine-1-carbonyl)phenyl)nicotinamide]	> 50
CC/C=C\C/C=C\C/C=C\C/C=C\C/C=C\CCCC(=O)NCCNC(=O)c1ccccc1NC(=O)c1cccnc1 [Compound I-59, N-(2-((2-((5Z,8Z,11Z,14Z,17Z)-icosa-5,8,11,14,17-pentaenamido)ethyl)carbamoyl)phenyl)nicotinamide]	> 50
CC/C=C\C/C=C\C/C=C\C/C=C\C/C=C\CCCC(=O)NCCNC(=O)c1cccnc1O [VI-3, 2-hydroxy-N-(2-((5Z,8Z,11Z,14Z,17Z)-icosa-5,8,11,14,17-pentaenamido)ethyl)nicotinamide]	> 50
CC/C=C\C/C=C\C/C=C\C/C=C\C/C=C\CCCC(=O)N(C)CC1CCN(C(=O)c2cccnc2)CC1 [Compound I-48, (5Z,8Z,11Z,14Z,17Z)—N-methyl-N-((1-nicotinoylpiperidin-4-yl)methyl)icosa-5,8,11,14,17-pentaenamide]	< 25
CC/C=C\C/C=C\C/C=C\C/C=C\C/C=C\CCCC(=O)NCCNC(=O)c1cnccc1O [VI-1, 4-hydroxy-N-(2-((5Z,8Z,11Z,14Z,17Z)-icosa-5,8,11,14,17-pentaenamido)ethyl)nicotinamide]	> 50
CC/C=C\C/C=C\C/C=C\C/C=C\C/C=C\CCCC(=O)NCCNC(=O)CNC(=O)c1cccnc1 [Compound I-30, N-(2-((2-((5Z,8Z,11Z,14Z,17Z)-icosa-5,8,11,14,17-pentaenamido)ethyl)amino)-2-oxoethyl)nicotinamide]	25 to 50
CC/C=C\C/C=C\C/C=C\C/C=C\C/C=C\CCCC(=O)NCCNC(=O)c1cccnc1F [VI-7, 2-fluoro-N-(2-((5Z,8Z,11Z,14Z,17Z)-icosa-5,8,11,14,17-pentaenamido)ethyl)nicotinamide]	< 25

Now from value to compound:

IC50 [µM]	Compound
< 25	CC/C=C\C/C=C\C/C=C\C/C=C\C/C=C\CCCC(=O)N1CC[C@@H](NC(=O)C(C)(C)Oc2ccc(C(=O)c3ccc(Cl)cc3)cc2)C1 [VII-21, 2-(4-(4-chlorobenzoyl)phenoxy)-N—((R)-1-((5Z,8Z,11Z,14Z,17Z)-icosa-5,8,11,14,17-pentaenoyl)pyrrolidin-3-yl)-2-methylpropanamide]
25 to 50	CC/C=C\C/C=C\C/C=C\C/C=C\C/C=C\CCCC(=O)NCCNC(=O)c1cncc(-c2ccccc2)c1 [VI-2, N-(2-((5Z,8Z,11Z,14Z,17Z)-icosa-5,8,11,14,17-pentaenamido)ethyl)-5-phenylnicotinamide]
< 25	CC/C=C\C/C=C\C/C=C\C/C=C\C/C=C\C/C=C\CCC(=O)NCCNC(=O)C(C)(C)Oc1ccc(C(=O)c2ccc(Cl)cc2)cc1 [II-36, (4Z,7Z,10Z,13Z,16Z,19Z)—N-(2-(2-(4-(4-chlorobenzoyl)phenoxy)-2-methylpropanamido)ethyl)docosa-4,7,10,13,16,19-hexaenamide]
> 50	CC/C=C\C/C=C\C/C=C\C/C=C\C/C=C\CCCC(=O)N1CCC[C@H]1CNC(=O)C(C)(C)Oc1ccc(C(=O)c2ccc(Cl)cc2)cc1 [VII-24, 2-(4-(4-chlorobenzoyl)phenoxy)-N—(((S)-1-((5Z,8Z,11Z,14Z,17Z)-icosa-5,8,11,14,17-pentaenoyl)pyrrolidin-2-yl)methyl)-2-methylpropanamide]
25 to 50	CC/C=C\C/C=C\C/C=C\C/C=C\C/C=C\CCCC(=O)N1CC[C@H](N(C)C(=O)C2=CC(=O)C(C)(c3ccccc3)O2)C1 (stereo partly drawn) [VII-9, N—((S)-1-((5Z,8Z,11Z,14Z,17Z)-icosa-5,8,11,14,17-pentaenoyl)pyrrolidin-3-yl)-N,5-dimethyl-4-oxo-5-phenyl-4,5-dihydrofuran-2-carboxamide]
< 25	CC/C=C\C/C=C\C/C=C\C/C=C\C/C=C\CCCC(=O)NCCNC(=O)C(C)(C)Oc1ccc(CCNC(=O)c2ccc(Cl)cc2)cc1 [II-39, 4-chloro-N-(4-((1-((2-((5Z,8Z,11Z,14Z,17Z)-icosa-5,8,11,14,17-pentaenamido)ethyl)amino)-2-methyl-1-oxopropan-2-yl)oxy)phenethyl)benzamide]
< 25	CC/C=C\C/C=C\C/C=C\C/C=C\C/C=C\C/C=C\CCC(=O)NCCNC(=O)C(C)(C)CCCOc1cc(C)ccc1C [II-34, (4Z,7Z,10Z,13 Z,16Z,19Z)—N-(2-(5-(2,5-dimethylphenoxy)-2,2-dimethylpentanamido)ethyl)docosa-4,7,10,13,16,19-hexaenamide]
< 25	CC/C=C\C/C=C\C/C=C\C/C=C\C/C=C\CCCC(=O)N1CC[C@@H](CNC(=O)C2=CC(=O)C(C)(c3ccccc3)O2)C1 (stereo partly drawn) [VII-6, N—(((S)-1-((5Z,8Z,11Z,14Z,17Z)-icosa-5,8,11,14,17-pentaenoyl)pyrrolidin-3-yl)methyl)-5-methyl-4-oxo-5-phenyl-4,5-dihydrofuran-2-carboxamide]
< 25	CC/C=C\C/C=C\C/C=C\C/C=C\C/C=C\CCCC(=O)NC1CCN(C(=O)C(C)(C)Oc2ccc(C(=O)c3ccc(Cl)cc3)cc2)CC1 [VII-25, (5Z,8Z,11Z,14Z,17Z)—N-(1-(2-(4-(4-chlorobenzoyl)phenoxy)-2-methylpropanoyl)piperidin-4-yl)icosa-5,8,11,14,17-pentaenamide]
< 25	CC/C=C\C/C=C\C/C=C\C/C=C\C/C=C\CCCC(=O)N1CCC[C@@H]1CNC(=O)c1cnc(C)c[n+]1[O-] [VII-13, 2-((((R)-1-((5Z,8Z,11Z,14Z,17Z)-icosa-5,8,11,14,17-pentaenoyl)pyrrolidin-2-yl)methyl)carbamoyl)-5-methylpyrazine 1-oxide]
> 50	CC/C=C\C/C=C\C/C=C\C/C=C\C/C=C\C/C=C\CCC(=O)NCCOCCOCCOC [III-1, (4Z,7Z,10Z,13Z,16Z,19Z)—N-(2-(2-(2-methoxyethoxy)ethoxy)ethyl)docosa-4,7,10,13,16,19-hexaenamide]
